Measurements taken from ChEMBL document CHEMBL1201862, “PubChem BioAssay data set” (2004).
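A five-concentration, 48-hour dose response in 96-well plates underlies each endpoint, interpolated linearly between surrounding concentrations. At the GI50, growth is halved.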 Calls of active or inactive are those of the source. Rule as the data show it: active = GI50 up to about 1.1 µM and inactive = higher.

Assays:
Experiment in all cases: NCI anticancer screen, dose series, 48 h
SK-OV-3 = system: SK-OV-3
CCRF-CEM = system: CCRF-CEM
T47D = system: T47D
IGROV-1 = system: IGROV-1
OVCAR-5 = system: OVCAR-5
SN12C = system: SN12C
MDA-MB-435 = system: MDA-MB-435
OVCAR-4 = system: OVCAR-4
EKVX = system: EKVX
NCI-H460 = system: NCI-H460
LOX IMVI = system: LOX IMVI
TK-10 = system: TK-10
NCI/ADR-RES = system: NCI/ADR-RES
Hs-578T = system: Hs-578T
HOP-62 = system: HOP-62
KM12 = system: KM12
UACC-62 = system: UACC-62
HCC 2998 = system: HCC 2998
SK-MEL-2 = system: SK-MEL-2
SF-295 = system: SF-295
DU-145 = system: DU-145
HOP-92 = system: HOP-92
U-251 = system: U-251
HT-29 = system: HT-29
RPMI-8226 = system: RPMI-8226
MCF7 = system: MCF7
HL-60 = system: HL-60
HCT-15 = system: HCT-15
RXF 393 = system: RXF 393
SK-MEL-28 = system: SK-MEL-28
OVCAR-8 = system: OVCAR-8
BT-549 = system: BT-549
ACHN = system: ACHN
A549 = system: A549
OVCAR-3 = system: OVCAR-3
CAKI-1 = system: CAKI-1
SNB-75 = system: SNB-75
A498 = system: A498
MDA-MB-231 = system: MDA-MB-231
SW-620 = system: SW-620
MDA-N = system: MDA-N
PC-3 = system: PC-3
NCI-H522 = system: NCI-H522
NCI-H226 = system: NCI-H226
MOLT-4 = system: MOLT-4
K562 = system: K562
UACC-257 = system: UACC-257
M14 = system: M14
SR = system: SR
SNB-19 = system: SNB-19
SF-539 = system: SF-539
SK-MEL-5 = system: SK-MEL-5
786-0 = system: 786-0
HCT-116 = system: HCT-116
Malme-3M = system: Malme-3M
NCI-H23 = system: NCI-H23
COLO 205 = system: COLO 205
SF-268 = system: SF-268
UO-31 = system: UO-31

N#CCCN(CCC#N)c1ccc(/C=C2\SC(=S)NC2=O)cc1
GI50 (SK-OV-3): > 100 µM (inactive)
GI50 (CCRF-CEM): > 100 µM (inactive)
GI50 (T47D): > 100 µM (inactive)
GI50 (IGROV-1): > 100 µM (inactive)
GI50 (OVCAR-5): > 100 µM (inactive)
GI50 (SN12C): > 100 µM (inactive)
GI50 (MDA-MB-435): > 100 µM (inactive)
GI50 (OVCAR-4): 30.8 µM (inactive)
GI50 (EKVX): > 100 µM (inactive)
GI50 (NCI-H460): > 100 µM (inactive)
GI50 (LOX IMVI): 34.6 µM (inactive)
GI50 (TK-10): 85.3 µM (inactive)
GI50 (NCI/ADR-RES): > 100 µM (inactive)
GI50 (Hs-578T): > 100 µM (inactive)
GI50 (HOP-62): 35.2 µM (inactive)
GI50 (KM12): > 100 µM (inactive)
GI50 (UACC-62): > 100 µM (inactive)
GI50 (HCC 2998): > 100 µM (inactive)
GI50 (SK-MEL-2): > 100 µM (inactive)
GI50 (SF-295): 39.4 µM (inactive)
GI50 (DU-145): > 100 µM (inactive)
GI50 (HOP-92): 75.9 µM (inactive)
GI50 (U-251): 20.3 µM (inactive)
GI50 (HT-29): > 100 µM (inactive)
GI50 (RPMI-8226): > 100 µM (inactive)
GI50 (MCF7): > 100 µM (inactive)
GI50 (HL-60): > 100 µM (inactive)
GI50 (HCT-15): > 100 µM
GI50 (RXF 393): 37.9 µM (inactive)
GI50 (SK-MEL-28): > 100 µM (inactive)
GI50 (OVCAR-8): 44.2 µM (inactive)
GI50 (BT-549): 31.8 µM (inactive)
GI50 (ACHN): 41.5 µM (inactive)
GI50 (A549): > 100 µM (inactive)
GI50 (OVCAR-3): > 100 µM (inactive)
GI50 (CAKI-1): 23 µM (inactive)
GI50 (SNB-75): 50.2 µM (inactive)
GI50 (A498): 57.1 µM (inactive)
GI50 (MDA-MB-231): 30.3 µM (inactive)
GI50 (SW-620): > 100 µM (inactive)
GI50 (MDA-N): > 100 µM (inactive)
GI50 (PC-3): > 100 µM (inactive)
GI50 (NCI-H522): > 100 µM (inactive)
GI50 (NCI-H226): > 100 µM (inactive)
GI50 (MOLT-4): > 100 µM (inactive)
GI50 (K562): > 100 µM (inactive)
GI50 (UACC-257): > 100 µM (inactive)
GI50 (M14): > 100 µM (inactive)
GI50 (SR): > 100 µM (inactive)
GI50 (SNB-19): 33.9 µM (inactive)
GI50 (SF-539): > 100 µM (inactive)
GI50 (SK-MEL-5): > 100 µM (inactive)
GI50 (786-0): 30 µM (inactive)
GI50 (HCT-116): > 100 µM (inactive)
GI50 (Malme-3M): > 100 µM (inactive)
GI50 (NCI-H23): > 100 µM (inactive)
GI50 (COLO 205): > 100 µM (inactive)
GI50 (SF-268): > 100 µM (inactive)
GI50 (UO-31): > 100 µM (inactive)

COc1ccc2cc(CN3CCC(C4CCNCC4)CC3)ccc2c1
GI50 (SK-OV-3): 10 µM (inactive)
GI50 (CCRF-CEM): 1.96 µM (inactive)
GI50 (T47D): 2.33 µM (inactive)
GI50 (IGROV-1): 3.7 µM (inactive)
GI50 (OVCAR-5): 7.76 µM (inactive)
GI50 (SN12C): 6.85 µM (inactive)
GI50 (MDA-MB-435): 1.91 µM (inactive)
GI50 (OVCAR-4): 8.97 µM (inactive)
GI50 (EKVX): 5.02 µM (inactive)
GI50 (NCI-H460): 1.93 µM (inactive)
GI50 (LOX IMVI): 1.6 µM (inactive)
GI50 (TK-10): 3.79 µM (inactive)
GI50 (NCI/ADR-RES): 2.88 µM (inactive)
GI50 (Hs-578T): 2.93 µM (inactive)
GI50 (HOP-62): 2.67 µM (inactive)
GI50 (KM12): 2.11 µM (inactive)
GI50 (UACC-62): 1.97 µM (inactive)
GI50 (HCC 2998): 0.412 µM (active)
GI50 (SK-MEL-2): 1.91 µM (inactive)
GI50 (SF-295): 1.89 µM (inactive)
GI50 (DU-145): 4.2 µM (inactive)
GI50 (HOP-92): 1.79 µM (inactive)
GI50 (U-251): 1.91 µM (inactive)
GI50 (HT-29): 1.3 µM (inactive)
GI50 (RPMI-8226): 1.53 µM (inactive)
GI50 (MCF7): 2.11 µM (inactive)
GI50 (HL-60): 1.49 µM (inactive)
GI50 (HCT-15): 2.28 µM
GI50 (RXF 393): 2.28 µM (inactive)
GI50 (SK-MEL-28): 1.75 µM (inactive)
GI50 (OVCAR-8): 3.4 µM (inactive)
GI50 (BT-549): 8.67 µM (inactive)
GI50 (ACHN): 3.61 µM (inactive)
GI50 (A549): 12.2 µM (inactive)
GI50 (OVCAR-3): 5.41 µM (inactive)
GI50 (CAKI-1): 2.48 µM (inactive)
GI50 (SNB-75): 1.91 µM (inactive)
GI50 (A498): 5.33 µM (inactive)
GI50 (MDA-MB-231): 2.2 µM (inactive)
GI50 (SW-620): 1.82 µM (inactive)
GI50 (MDA-N): 2.02 µM (inactive)
GI50 (PC-3): 7.8 µM (inactive)
GI50 (NCI-H522): 2.17 µM (inactive)
GI50 (NCI-H226): 7.93 µM (inactive)
GI50 (MOLT-4): 0.437 µM (active)
GI50 (K562): 0.959 µM (active)
GI50 (UACC-257): 1.87 µM (inactive)
GI50 (M14): 2.06 µM (inactive)
GI50 (SR): 2.07 µM (inactive)
GI50 (SNB-19): 6.65 µM (inactive)
GI50 (SF-539): 1.71 µM (inactive)
GI50 (SK-MEL-5): 1.79 µM (inactive)
GI50 (786-0): 1.67 µM (inactive)
GI50 (HCT-116): 1.8 µM (inactive)
GI50 (Malme-3M): 1.72 µM (inactive)
GI50 (NCI-H23): 12 µM (inactive)
GI50 (COLO 205): 1.69 µM (inactive)
GI50 (SF-268): 2.58 µM (inactive)
GI50 (UO-31): 2.45 µM (inactive)
